Assay [1] concerns the target T1, matriptase (Homo sapiens, UniProt Q9Y5Y6).
T1 construct: Gels containing the 70-kDa active matriptase was sliced out, and eluted from gel; from tissue; host or cells: human milk
T1 sequence (Q9Y5Y6 615-855 limits assumed): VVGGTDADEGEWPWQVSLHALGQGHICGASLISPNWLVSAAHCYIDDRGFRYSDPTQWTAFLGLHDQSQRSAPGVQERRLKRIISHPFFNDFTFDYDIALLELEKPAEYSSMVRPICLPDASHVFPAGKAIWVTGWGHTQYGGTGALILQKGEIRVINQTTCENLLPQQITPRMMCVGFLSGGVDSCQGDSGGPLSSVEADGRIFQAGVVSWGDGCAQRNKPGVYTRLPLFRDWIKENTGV
T1 sequence (Q9Y5Y6 190-614 partner limits assumed): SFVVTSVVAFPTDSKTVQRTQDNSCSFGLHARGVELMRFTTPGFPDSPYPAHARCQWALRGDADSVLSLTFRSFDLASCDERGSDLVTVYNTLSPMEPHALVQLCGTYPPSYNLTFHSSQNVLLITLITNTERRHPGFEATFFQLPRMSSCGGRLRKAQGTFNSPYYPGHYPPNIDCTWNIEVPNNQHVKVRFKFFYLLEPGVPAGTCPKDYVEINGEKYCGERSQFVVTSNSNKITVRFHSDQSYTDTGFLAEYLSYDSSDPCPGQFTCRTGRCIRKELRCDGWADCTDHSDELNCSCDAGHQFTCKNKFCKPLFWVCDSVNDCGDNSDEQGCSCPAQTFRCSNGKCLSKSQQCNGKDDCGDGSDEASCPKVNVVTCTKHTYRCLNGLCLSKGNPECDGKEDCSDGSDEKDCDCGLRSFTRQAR
Put plainly: Determination of inhibitory activity, Ki by Dixon plotting, matriptase. The class given is biochemical. An excerpt:
Purification of Active Form Matriptase. Activated matriptase, in a complex with its endogenous inhibitor HAI-1, was purified from human milk by immunoaffinity chromatography, and maintained in its uncomplexed status in glycine buffer pH 2.4, as described previously^11. Matritpase and HAI-1 were further separated by 10% SDS polyacryamide gel electrophoresis. The proteins were stained by Zinc stain Kit (Bio-Rad, Hercules, Calif.). Gels containing the 70-kDa active matriptase was sliced out, and eluted from gel using Electro-Eluter (Bio-Rad, Hercules, Calif.) under non-denatured conditions (Tris-Glysine buffer pH 8.3). Purified, active matriptase was then stored at −80° C. in acid solution.
(§1) Determination of Inhibitory Activity. Inhibitory activity of compounds against each protease was measured at room temperature using fluorescent substrate peptides in 100 mM Tris-HCl (pH 8.5), containing 100 μg/ml of bovine serum albumin. To a cuvette containing 170 μl buffer was added 10 μl of enzyme solution and 10 μl of inhibitors. After pre-incubation, 10 μl of substrate was added, and the solution was mixed well by shaking the cuvette. The residual enzyme activity was then determined by following the change of fluorescence released by hydrolysis of the fluorescent substrates in a fluorescent spectrophotometer (HITACHI F4500), with excitation at 360 nm and emission at 480 nm. Peptide N-t-Boc-Gln-Ala-Arg-AMC was used as a substrate for matriptase and trypsin, peptide N-t-Boc-Leu-Gly-Arg-AMC was used as a substrate for uPA, and peptide N-t-Boc-Leu-Arg-Arg-AMC was used as a substrate for thrombin.
(§2) Kinetic Screening of Compound Inhibitors. The inhibitory activity of each compound was first investigated by using a fixed (75 μM) concentration both of inhibitor and matriptase. […] We recorded the rate of hydrolysis in duplicate in the presence of 6-7 different concentrations of each inhibitor. A straight line of the concentration of inhibitor versus the reciprocal values of the rate of hydrolysis was plotted with SigmaPlot software. Two lines were obtained from two unsaturated substrate concentrations; the X value of the intersection of these lines gives the value of −Ki.

The target in assay [2] is T2, urokinase-type plasminogen activator (uPA) (Homo sapiens, UniProt P00749).
T2 construct: from tissue; host or cells: human urine
As to the kind of experiment: Determination of inhibitory activity, Ki by Dixon plotting, uPA. The class given is biochemical. The following applies: for selectivity between matriptase and uPA (less potent for uPA than for matriptase): ratio of Ki values; for Ki: substrate N-t-Boc-Leu-Gly-Arg-AMC, pH 8.5, room temperature.
Description: (§3) Materials. Active matriptase was purified from human milk as will be described later. Active urokinase-type plasminogen activator (uPA) was purified by aminobenzamidine-Sepharose 6B (Amersham Pharmacia, Piscataway, N.J.) from a partially purified uPA from human urine. Bovin β-trypsin, bovine thrombin, and fluorescent peptide substrates N-tert-Butoxy-Carbonyl (N-t-Boc)-Gln-Ala-Arg-7-Amido-4-Methylcoumarin (AMC), N-t-Boc-Leu-Gly-Arg-AMC, and N-t-Boc-Leu-Arg-Arg-AMC were purchased from Sigma (Sigma Chemical Company, St. Louis). Small molecule inhibitors were obtained from the Drug Synthesis & Chemistry Branch, Developmental Therapeutics Program, Division of Cancer Treatment and Diagnosis, National Cancer Institute. Other chemicals are all reagent grade.
as §1, §2

For a further assay, the target named is T3, bovine thrombin (Bos taurus, UniProt P00735).
T3 construct: bovine thrombin; purchased Sigma (Sigma Chemical Company, St. Louis)
Put plainly: Determination of inhibitory activity, Ki by Dixon plotting, thrombin. The conditions noted are these: for Ki: substrate N-t-Boc-Leu-Arg-Arg-AMC, pH 8.5, room temperature. The class given is biochemical.
Description: as §3, §1, §2

Assay [3] addresses T1, matriptase. Put plainly: Matriptase enzyme activity and kinetic parameters with fluorescent peptide substrates. It is filed as biochemical. An excerpt:
Purification of active Matriptase_Active matriptase, in the complex form with its endogenous inhibitor HAI-1, was purified from human milk. To separate matriptase from the bound HAI-1, the complex was dissociated by acid and resolved in 10% SDS polyacryamide gel electrophoresis. The proteins were stained by Zinc stain Kit (Bio-Rad, Hercules, Calif.), the 70-kDa active matriptase was sliced out, and eluted from gel using Electro-Eluter (Bio-Rad, Hercules, Calif.) under non-denatured condition (Tris-Glysine buffer pH 8.3).
Determination of matriptase activity_The enzyme activity of matriptase was measured at room temperature in a reaction buffer containing 100 mM Tris-HCl (pH 8.5) and 100_g/ml of BSA using fluorescent peptide as substrate. In brief, 10_l of enzyme solution and 10_l of peptide substrate were added to a cuvette containing 180_l of the reaction buffer. The mixture was mixed well, placed back to a fluorescent spectrophotometer (HITACH F4500), and the release of fluorescence resulting from hydrolysis of the peptide substrate was recorded with excitation at 360 nm and emission at 480 nm.
Determination of kinetic parameter_Substrate concentration versus initial reaction velocity were analyzed by the Michaelis-Menten equation and plotted using SigmaPlot software. Double reciprocal (Lineweaver-Burk) plots thus derived were used to determine Vmax and Km values.
Table 1. Kinetic Parameters of Matriptase for Various Peptide Substrates. […], the release of fluorescence resulting from hydrolysis of the peptide was recorded in a fluorescent spectrophotometer at room temperature with excitation at 360 nm and emission at 480 nm. Km and Vmax were determined by double reciprocal plot derived from Michaelis-Menten equation: […]

The test system of assay [4] is PC-3 prostate cancer tumors. The conditions noted are these: nude mice; cited from earlier work.
Setting [5] is: read-out: Ki value against matriptase (bound stated in text).
Setting [6] is: substrate N-t-Boc-Gln-Ala-Arg-AMC, pH 8.5, room temperature, read-out: Ki Matriptase.
Where [7] appears, read: peptide-AMC substrate hydrolysis by matriptase, room temperature.

“Also recorded” adds a separate entry of the source. Like-named read-outs stand apart in the source and are kept apart here. Bounds are passed on as bounds.

What is called Ki is the dissociation constant of the complex between target and ligand, obtained from inhibition or displacement. `N=C(N)c1ccc(OCCCCCCOc2ccc(C(=N)N)cc2)cc1` [Compound 1, hexamidine, reference compound]: the “selectivity matriptase versus thrombin/uPA” value at matriptase [1] is recorded as “thrombin selective”. For the same molecule, the Ki on matriptase [1] (setting [5]) was below 1000 nM; on matriptase [1] (setting [6]), 924 nM; in assay [2] it was 14400 nM; at bovine thrombin, 224 nM. Besides, the “selectivity between matriptase and uPA (less potent for uPA than for matriptase)” value in assay [2] is 16 fold.
As to `N=C(N)c1ccc(OCCCCCCOc2ccc(C(=N)N)cc2I)cc1` [Compound 2], on matriptase [1], the “selectivity matriptase versus thrombin/uPA” value was “more selective for matriptase versus thrombin”. Also, the “improved potency for matriptase” value on matriptase [1] (compared with compound 1) is “approximately 5 fold”. Further, the Ki on matriptase [1] (setting [5]) is below 1000 nM; on matriptase [1] (setting [6]), 191 nM; in assay [2], 1980 nM; on bovine thrombin, 796 nM. The “decreased potency for thrombin” value at bovine thrombin (compared with compound 1) was “approximately 4 fold”.
Consider `N=C(N)c1ccc(OCCCCCOc2ccc(C(=N)N)cc2)cc1` [Compound 3], for which, on matriptase [1] (setting [6]), the Ki amounted to 1160 nM.
For the molecule `N=C(N)c1ccc(/N=N/c2c(O)ccc3cc4c(/N=N/c5ccc(C(=N)N)cc5)c(O)ccc4cc23)cc1` [Compound 4], the Ki on matriptase [1] (setting [6]) came out at 4500 nM; at bovine thrombin it was 28400 nM.
As to `N=C(N)c1ccc(OCCCOc2ccc(C(=N)N)cc2Br)c(Br)c1` [Compound 5], the “more potent against matriptase” value on matriptase [1] (compared with 1 and 3) is reported as “approximately 2 fold”. For the same molecule, the Ki on matriptase [1] (setting [5]) is below 1000 nM; at matriptase [1] (setting [6]) it was 535 nM; in assay [2], 1570 nM; on bovine thrombin it was 946 nM.
For the molecule `N=C(N)c1ccc(Oc2ccc(Oc3ccc(C(=N)N)cc3)cc2)cc1` [Compound 7], the “selectivity matriptase versus thrombin/uPA” value on matriptase [1] is “most selective inhibitor for matriptase; also recorded: matriptase selective; also recorded: most selective compound”. For the same molecule, the inhibition constant (Ki) was below 1000 nM on matriptase [1] (setting [5]), 208 nM at matriptase [1] (setting [6]), 1950 nM in assay [2] and 2670 nM on bovine thrombin. Further, the “selectivity between matriptase and uPA (less potent for uPA than for matriptase)” value in assay [2] turned out to be 9 fold. The “selectivity between matriptase and thrombin” value on bovine thrombin (ratio of Ki values) is reported as 13 fold.
Take `CC(=O)N[C@@H](CC(C)C)C(=O)N[C@@H](CC(C)C)C(=O)N[C@H](C=O)CCCNC(=N)N` [leupeptin]: on matriptase [3], the “inhibition of matriptase enzyme activity” value was “can also inhibit matriptase enzyme activity”.
ecotin: the “growth of PC-3 prostate cancer tumors” value in assay [4] is “retards the growth”.
As usually defined, the Km is the substrate concentration at which the rate is half of its maximum. For the molecule hexamidine [Compound 1], at matriptase [3] (setting [7]), the Km came out at 4.89 µM and the Vmax is recorded as 654 nM Amc/min.
